In data set [1] the test system is Mus musculus. Kind of data set: Neurotoxicity in ip dosed mouse assessed as minimum effective dose required to induce motor impairment measured after 4 hrs by Rotarod test. The data set is classed as toxicity, organism-based. To be noted: in vivo.
Data set [2] deals with Mus musculus. In words: Neurotoxicity in ip dosed mouse assessed as minimum effective dose required to induce motor impairment measured after 0.5 hrs by Rotarod test. The data set is classed as toxicity, organism-based. To be noted: in vivo. In general terms: Falling from the rotarod earlier than controls is read as motor impairment.
Data set [3] deals with Mus musculus. Kind of data set: Anticonvulsant activity against subcutaneous pentylenetetrazole-induced seizures in mouse assessed as onset time for tonic seizures at 10 mg/kg, ip measured after 0.5 hrs by pentylene tetrazole test (reference value: 385.5 +/-10.90 secs). To be noted: route intraperitoneal. The data set is classed as functional.
For data set [4], the system named is Mus musculus. Kind of data set: Anticonvulsant activity against subcutaneous pentylenetetrazole-induced seizures in mouse assessed as onset time for clonic seizures at 10 mg/kg, ip measured after 0.5 hrs by pentylene tetrazole test (reference value: 59.2 +/-1.11 secs). The data set is classed as functional.
Data set [5] has as its system Mus musculus. Kind of data set: Anticonvulsant activity against maximal electroshock-induced seizures in NMRI mouse assessed as latency period for the onset of clonus at 10 mg/kg, ip measured after 0.5 hrs by maximal electroshock test (reference value: 2.18 +/-0.47 secs). The data set is classed as functional. To be noted: route intraperitoneal. (In general: Protection in the maximal electroshock model is a classic sign of anticonvulsant action.)

The subject of data set [6] is Mus musculus. Kind of data set: Anticonvulsant activity against maximal electroshock-induced seizures in NMRI mouse assessed as duration of tonic hindlimb extension at 10 mg/kg, ip measured after 0.5 hrs by maximal electroshock test (reference value: 15.35 +/-0.60%). The data set is classed as functional. To be noted: route intraperitoneal.

SMILES strings stand for the structures.

As to `Cc1cccn2c(C3CC(c4ccc(Cl)cc4)=NN3)c(-c3ccc(F)cc3)nc12` (centres undefined), the MED result in the data set with Mus musculus [1] and with Mus musculus [2] was “Non-toxic” in each case. Moreover, the Time worked out at 542.2 s in the data set on Mus musculus [3], 158.7 s with Mus musculus [4], 9.45 s with Mus musculus [5] and 7.21 s in the data set with Mus musculus [6].

With `Cc1cccn2c(C3CC(c4ccccc4)=NN3)c(-c3ccc(F)cc3)nc12` (centres undefined), the MED entry in the data set with Mus musculus [1] and in the data set with Mus musculus [2] was “Non-toxic” each time. Further, the Time worked out at 528.2 s in the data set with Mus musculus [3], 149.3 s in the data set with Mus musculus [4], 10.97 s with Mus musculus [5] and 6.54 s with Mus musculus [6].

In the case of `Cc1ccc(C2=NNC(c3c(-c4ccccc4)nc4c(C)cccn34)C2)cc1` (centres undefined), the Time stood at 532.5 s in the data set with Mus musculus [3], 126.7 s with Mus musculus [4], 9.28 s with Mus musculus [5] and 7.22 s in the data set with Mus musculus [6].

For `Cc1cccn2c(C3CC(c4ccc(F)cc4)=NN3)c(-c3ccccc3)nc12` (centres undefined), the Time in the data set with Mus musculus [3] stood at 426.8 s; in the data set with Mus musculus [4] it was 79.32 s; with Mus musculus [5], 9.25 s; in the data set with Mus musculus [6], 7.15 s.

Turning to `Cc1ccc(-c2nc3c(C)cccn3c2C2CC(c3cccs3)=NN2)cc1` (centres undefined), the MED entry with Mus musculus [1] and in the data set on Mus musculus [2] was “Non-toxic” throughout. Besides, the Time in the data set on Mus musculus [3] is 530.8 s; with Mus musculus [4], 117.7 s; with Mus musculus [5] it was 9.33 s; with Mus musculus [6] it was 7.27 s.

As to `Cc1cccn2c(-c3cc(-c4ccc([N+](=O)[O-])cc4)[nH]c(=O)c3C#N)c(-c3ccc(F)cc3)nc12`, the figures for the MED in the data set with Mus musculus [1] and with Mus musculus [2] were 100 mg/kg and “Non-toxic”, respectively. Further, the Time in the data set with Mus musculus [3] came to 641.5 s; in the data set on Mus musculus [4] it was 171.8 s; in the data set on Mus musculus [5], 10.88 s; in the data set on Mus musculus [6], 6.61 s.

Regarding `Cc1cccn2c(-c3cc(-c4ccc(Cl)cc4)[nH]c(=O)c3C#N)c(-c3ccc(F)cc3)nc12`, the MED result in the data set with Mus musculus [1] and with Mus musculus [2] was “Non-toxic” in each case. The Time in the data set with Mus musculus [3] is on record as 544.7 s; in the data set with Mus musculus [4], 129.2 s; in the data set on Mus musculus [5] it was 10.97 s; in the data set on Mus musculus [6], 6.54 s.

For the molecule `COc1nc(-c2ccc(C)cc2)cc(-c2c(-c3ccc(F)cc3)nc3c(C)cccn23)c1C#N`, the MED result in the data set with Mus musculus [1] and with Mus musculus [2] was “Non-toxic” throughout. In addition, the Time came out at 611.5 s in the data set with Mus musculus [3], 335.3 s with Mus musculus [4], 7.94 s in the data set on Mus musculus [5] and 9.84 s in the data set on Mus musculus [6].

As for `COc1nc(-c2ccccc2)cc(-c2c(-c3ccc(F)cc3)nc3c(C)cccn23)c1C#N`, the MED entry in the data set with Mus musculus [1] and with Mus musculus [2] was “Non-toxic” each time. For the same molecule, the Time in the data set on Mus musculus [3] came out at 596 s; with Mus musculus [4], 171.5 s; in the data set on Mus musculus [5] it was 9.9 s; in the data set on Mus musculus [6], 7.77 s.

As for `COc1nc(-c2ccc([N+](=O)[O-])cc2)cc(-c2c(-c3ccc(F)cc3)nc3c(C)cccn23)c1C#N`, the Time in the data set on Mus musculus [3] came to 469.2 s; with Mus musculus [4] it was 115.7 s; in the data set on Mus musculus [5] it was 9.13 s; in the data set on Mus musculus [6], 7.01 s.

`COc1nc(-c2ccc(F)cc2)cc(-c2c(-c3ccccc3)nc3c(C)cccn23)c1C#N`: the MED result with Mus musculus [1] and with Mus musculus [2] was “Non-toxic” each time. For the same molecule, the Time in the data set with Mus musculus [3] was found to be 456.7 s; with Mus musculus [4] it was 90.87 s; with Mus musculus [5] it was 10.77 s; in the data set with Mus musculus [6], 6.96 s.

Turning to `COc1nc(-c2ccc([N+](=O)[O-])cc2)cc(-c2c(-c3ccccc3)nc3c(C)cccn23)c1C#N`, the MED entry in the data set with Mus musculus [1] and with Mus musculus [2] was “Non-toxic” throughout. The Time in the data set with Mus musculus [3] was found to be 426.8 s; in the data set on Mus musculus [4], 79.32 s; with Mus musculus [5], 8.72 s; in the data set with Mus musculus [6] it was 8.52 s.

For the molecule `COc1nc(-c2ccc(C)cc2)cc(-c2c(-c3ccccc3)nc3c(C)cccn23)c1C#N`, the MED result in the data set on Mus musculus [1] and with Mus musculus [2] was “Non-toxic” in each case. Moreover, the Time is given as 595.7 s in the data set with Mus musculus [3], 170.7 s in the data set with Mus musculus [4], 10.9 s in the data set on Mus musculus [5] and 6.85 s in the data set with Mus musculus [6].

For `Cc1cccn2c(-c3cc(-c4ccc(Cl)cc4)nc(N)n3)c(-c3ccc(F)cc3)nc12`, the Time is 480.2 s with Mus musculus [3], 109.7 s with Mus musculus [4], 7.95 s with Mus musculus [5] and 9.88 s in the data set with Mus musculus [6].

Regarding `Cc1cccn2c(-c3cc(-c4ccc([N+](=O)[O-])cc4)nc(N)n3)c(-c3ccc(F)cc3)nc12`, the Time in the data set on Mus musculus [3] amounted to 435.8 s; with Mus musculus [4], 85.33 s; in the data set on Mus musculus [5], 8.8 s; in the data set on Mus musculus [6], 8.67 s.

With `Cc1ccc(-c2cc(-c3c(-c4ccc(F)cc4)nc4c(C)cccn34)nc(N)n2)cc1`, the MED entry with Mus musculus [1] and in the data set with Mus musculus [2] was “Non-toxic” each time. For the same molecule, the Time came out at 593.2 s in the data set with Mus musculus [3], 171.4 s in the data set on Mus musculus [4], 8.16 s with Mus musculus [5] and 8.15 s in the data set with Mus musculus [6].

For `Cc1cccn2c(-c3cc(-c4ccccc4)nc(N)n3)c(-c3ccc(F)cc3)nc12`, the MED entry in the data set with Mus musculus [1] and in the data set on Mus musculus [2] was “Non-toxic” throughout. For the same molecule, the Time in the data set on Mus musculus [3] is listed as 469.2 s; with Mus musculus [4] it was 115.7 s; in the data set on Mus musculus [5], 8.11 s; in the data set with Mus musculus [6], 8.27 s.

On to `Cc1cccn2c(-c3cc(-c4cccs4)nc(N)n3)c(-c3ccccc3)nc12`, for which the MED entry in the data set on Mus musculus [1] and in the data set on Mus musculus [2] was “Non-toxic” in each case. In addition, the Time with Mus musculus [3] was found to be 426.8 s; in the data set on Mus musculus [4], 79.5 s; in the data set with Mus musculus [5] it was 8.86 s; in the data set with Mus musculus [6], 8.71 s.

`Cc1ccc(-c2cc(-c3c(-c4ccccc4)nc4c(C)cccn34)nc(N)n2)cc1`: the MED result with Mus musculus [1] and in the data set with Mus musculus [2] was “Non-toxic” in each case. The Time was 454.7 s with Mus musculus [3], 90.83 s in the data set with Mus musculus [4], 8.72 s in the data set on Mus musculus [5] and 8.52 s with Mus musculus [6].

As for `Cc1cccn2c(C3C=C(c4ccc(Cl)cc4)NC(=S)N3)c(-c3ccc(F)cc3)nc12` (centres undefined), the Time with Mus musculus [3] is 435 s; with Mus musculus [4], 82.5 s; in the data set on Mus musculus [5] it was 9.9 s; in the data set with Mus musculus [6], 7.77 s.

As to `Cc1cccn2c(C3C=C(c4ccccc4)NC(=S)N3)c(-c3ccc(F)cc3)nc12` (centres undefined), the MED result in the data set on Mus musculus [1] and with Mus musculus [2] was “Non-toxic” throughout. Moreover, the Time was determined as 479.7 s in the data set on Mus musculus [3], 107 s with Mus musculus [4], 8.04 s with Mus musculus [5] and 8.13 s with Mus musculus [6].

With `Cc1ccc(C2=CC(c3c(-c4ccccc4)nc4c(C)cccn34)NC(=S)N2)cc1` (centres undefined), the MED entry in the data set with Mus musculus [1] and in the data set with Mus musculus [2] was “Non-toxic” in each case. Besides, the Time in the data set with Mus musculus [3] was 426.5 s; in the data set on Mus musculus [4] it was 79.34 s; in the data set on Mus musculus [5] it was 9.75 s; in the data set on Mus musculus [6], 7.45 s.

Take `Cc1cccn2c(C3C=C(c4ccc(F)cc4)NC(=S)N3)c(-c3ccccc3)nc12` (centres undefined): the MED entry in the data set with Mus musculus [1] and in the data set with Mus musculus [2] was “Non-toxic” in each case. Moreover, the Time in the data set with Mus musculus [3] was found to be 454.7 s; with Mus musculus [4], 90.83 s; in the data set on Mus musculus [5], 10.91 s; in the data set with Mus musculus [6] it was 6.87 s.

Take `CN1C(=O)CN=C(c2ccccc2)c2cc(Cl)ccc21` [DIAZEPAM]: the MED result with Mus musculus [1] and in the data set with Mus musculus [2] was “Non-toxic” throughout. In the data set with Mus musculus [5], the Time was 13.17 s.

The record behind these values is ChEMBL document CHEMBL2331527, “New imidazo[1,2-a]pyridines carrying active pharmacophores: synthesis and anticonvulsant studies” (Bioorg Med Chem Lett, 2013).
